Article PMC12006171, “Marsupial cathelicidins: characterization, antimicrobial activity and evolution in this unique mammalian lineage” (Frontiers in Immunology, 2025)
Values after ≈ are worked out from the molar mass of the structure shown. Where two headings read alike, the source gives them in different places. Where a SMILES comes first, the peptide text is derived from it.

Columns and labels:
Assay in all cases: microbe, parasite or virus in culture
Assay type in all cases: cell-based
[1] = test system: Streptococcus agalactiae Clinical isolate - animal; settings: read-out: MIC S. agalactiae
Description: (§1) Antimicrobial testing of 78 cathelicidin MPs was performed in two phases as outlined in Figure 1 . In phase I, 40 peptides (27 extant and 13 ancestral) were selected for testing based on rank (outlined above) and similarity to published marsupial cathelicidins with known antimicrobial activity ([33], [41]–[43]). These peptides were tested against nine bacteria (Staphylococcus aureus ATCC 29213 and clinical isolate, Escherichia coli ATCC 25922 and clinical isolate, Pseudomonas aeruginosa ATCC 27853 and clinical isolate, Streptococcus agalactiae ATCC 12386 and clinical isolate, Streptococcus pneumoniae ATCC 49619) and three fungi (Candida krusei ATCC 6258, Candida parapsilosis ATCC 22019, and Candida albicans clinical isolate). Details regarding these strains are available in Supplementary Table 4 . The antimicrobial activity of cathelicidins was determined as the minimum inhibitory concentration (MIC), which was the lowest concentration of cathelicidin that prevented visible bacterial or fungal growth, relative to the negative control. […] Minimum bactericidal concentration (MBC) and/or minimum fungicidal concentration (MFC) was conducted to determine microbicidal versus static action. Activity against S. aureus ATCC, E. coli ATCC, and Pseudomonas aeruginosa ATCC 27853 was examined in the presence of divalent cations to determine the impact of inhibitors.
(§2) Antimicrobial activity was determined using a broth microdilution susceptibility assay in 96 well polypropylene plates according to Clinical Laboratory Standards Institute guidelines M07-A and M26A as described previously ([33], [42], [43]). The bacterial and fungal isolates from humans and animals used in this study are outlined in Supplementary Table 4 . Only yeasts were included in the panel of fungi as they have been used in the susceptibility testing of eutherian ([3], [81]–[83]) and other marsupial cathelicidins previously ([33], [42], [43]). Cathelicidin mature peptides were solubilized in DMSO and serially diluted in duplicate from 128-0.25μg/mL in a final volume of 100µL. For bacteria, cathelicidins were diluted in Mueller Hinton Broth (MHB) with or without 10% lysed horse blood, and with (MH II B) or without (MHB) calcium and magnesium cations. For fungi, cathelicidins were diluted in Roswell Park Memorial Institute medium (RPMI)-1640 MOPS. Ampicillin or tetracycline were included as a positive control for Gram-positive and -negative bacteria respectively, while amphotericin B was used for fungi. A media-only negative control and growth control (no cathelicidin) were also included on each plate. Bacteria were sub-cultured on Muller Hinton agar (MHA) or sheep blood agar (BA), and fungi on Sabouraud dextrose agar (SAB), 20–24 hours prior to the test. Colonies were suspended in saline, the concentration adjusted to a 0.5 McFarland standard, and then diluted in media to a concentration of 1.0 x 10^6 cells/mL. Then, 100μL was added to each well of the cathelicidin dilution plate, giving a final inoculum density of 5 x 10^5 CFU/mL and cathelicidin concentration of 64-0.125μg/mL. Colony counts were performed on MHA/BA/SAB to confirm inoculum density. All plates were incubated at 35°C for 20–24 hours, depending on the strain.
(§3) Colonies were counted and compared to the colony count of the starting inoculum.

[2] = test system: Streptococcus agalactiae ATCC 12386; settings: read-out: MIC S. agalactiae ATCC
Description: as §1, §2, §3

[3] = test system: Streptococcus pneumoniae ATCC 49619; settings: read-out: MIC S. pneumoniae ATCC
Description: as §1, §2, §3

[4] = test system: Staphylococcus aureus clinical isolate - animal
In short: (§4)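 MIC read visually as the lowest peptide concentration with no growth versus negative control, after 20–24 h at 35°C. Peptides were tested in duplicate 64-0.125μg/mL (final) in MHB or cation-supplemented MH II B, some with 10% lysed horse blood; inoculum 5 x 10^5 CFU/mL.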

[5] = test system: Escherichia coli ATCC 25922
In short: as §4

[6] = test system: Staphylococcus aureus ATCC 29213
In short: as §4

[7] = test system: Escherichia coli clinical isolate - animal
In short: as §4

[8] = test system: Pseudomonas aeruginosa clinical isolate - animal; settings: clinical isolate - animal; read-out: MIC P. aeruginosa
In short: as §4

[9] = test system: Pseudomonas aeruginosa ATCC 27853; settings: ATCC 27853; read-out: MIC P. aeruginosa ATCC
In short: as §4

[10] = clinical isolate - animal, read-out: MIC S. aureus
[11] = ATCC 25922, read-out: MIC E. coli ATCC
[12] = ATCC 29213, read-out: MIC S. aureus ATCC
[13] = ATCC 25922, read-out: MIC in the presence of cations E. coli ATCC

Structure (SMILES)	MIC ([1]; clinical isolate - animal) [µM]	MIC ([2]; ATCC 12386) [µM]	MIC ([3]; ATCC 49619) [µM]	MIC [4, 10] [µM]	MIC [8] [µM]	MIC [5, 11] [µM]	MIC [6, 12] [µM]	MIC [9] [µM]	MIC E. coli ([7]; clinical isolate - animal)	MIC in the presence of cations E. coli ([7]; clinical isolate - animal)	MBC E. coli ATCC ([5]; ATCC 25922) [µM]	MIC [5, 13] [µM]	also measured
CC1(C)S[C@@H]2[C@H](NC(=O)[C@H](N)c3ccccc3)C(=O)N2[C@H]1C(=O)O [Ampicillin, reference compound]	–	–	–	–	–	–	–	–	–	–	–	–	MIC ([1]; Streptococcus agalactiae, clinical isolate, phase I peptides only, 5 x 10^5 CFU/mL, 35°C 20–24 hours, duplicate): 0.25 µg/mL; MIC ([1]; Streptococcus agalactiae, clinical isolate, µM equivalent of Table 3): 0.7 µM; MIC ([2]; Streptococcus agalactiae, ATCC12386, phase I peptides only, 5 x 10^5 CFU/mL, 35°C 20–24 hours, duplicate): 0.25 µg/mL; MIC ([2]; Streptococcus agalactiae, ATCC12386, µM equivalent of Table 3): 0.7 µM; MIC ([3]; Streptococcus pneumoniae, ATCC49619, phase I peptides only, 5 x 10^5 CFU/mL, 35°C 20–24 hours, duplicate): > 64 µg/mL; MIC ([3]; Streptococcus pneumoniae, ATCC49619, µM equivalent of Table 3): > 183 µM; MIC ([4]; Staphylococcus aureus, clinical isolate, MHB without cations, 5 x 10^5 CFU/mL, 35°C 20–24 hours, duplicate, read-out: MIC S. aureus): 0.25 µg/mL; MIC ([4]; Staphylococcus aureus, clinical isolate, superscript value, cation-adjusted Mueller Hinton broth, read-out: MIC in the presence of cations S. aureus): 0.25 µg/mL; MIC ([4]; Staphylococcus aureus, clinical isolate, superscript value, cation-adjusted Mueller Hinton broth, µM equivalent, read-out: MIC in the presence of cations S. aureus): 0.7 µM; MIC ([4]; Staphylococcus aureus, clinical isolate, µM equivalent of Table 3, read-out: MIC S. aureus): 0.7 µM; MIC ([5]; Escherichia coli, ATCC25922, MHB without cations, 5 x 10^5 CFU/mL, 35°C 20–24 hours, duplicate, read-out: MIC E. coli ATCC): 4 µg/mL; MIC ([5]; Escherichia coli, ATCC25922, superscript value, cation-adjusted Mueller Hinton broth, read-out: MIC in the presence of cations E. coli ATCC): 8 µg/mL; MIC ([5]; Escherichia coli, ATCC25922, superscript value, cation-adjusted Mueller Hinton broth, µM equivalent, read-out: MIC in the presence of cations E. coli ATCC): 22.8 µM; MIC ([5]; Escherichia coli, ATCC25922, µM equivalent of Table 3, read-out: MIC E. coli ATCC): 11.4 µM; MIC ([6]; Staphylococcus aureus, ATCC29213, MHB without cations, 5 x 10^5 CFU/mL, 35°C 20–24 hours, duplicate, 64-0.125μg/mL, read-out: MIC S. aureus ATCC): 1 µg/mL; MIC ([6]; Staphylococcus aureus, ATCC29213, superscript value, cation-adjusted Mueller Hinton broth (calcium and magnesium), read-out: MIC in the presence of cations S. aureus ATCC): 2 µg/mL; MIC ([6]; Staphylococcus aureus, ATCC29213, superscript value, cation-adjusted Mueller Hinton broth, µM equivalent of Table 3, read-out: MIC in the presence of cations S. aureus ATCC): 5.7 µM; MIC ([6]; Staphylococcus aureus, ATCC29213, µM equivalent of Table 3, read-out: MIC S. aureus ATCC): 2.8 µM; MIC ([7]; Escherichia coli, clinical isolate, MHB without cations, 5 x 10^5 CFU/mL, 35°C 20–24 hours, duplicate): > 64 µg/mL; MIC ([7]; Escherichia coli, clinical isolate, µM equivalent of Table 3): > 183 µM
CC[C@H](C)[C@H](NC(=O)[C@H](CC(C)C)NC(=O)[C@H](CCCCN)NC(=O)[C@H](C)NC(=O)[C@H](CC(C)C)NC(=O)[C@H](CO)NC(=O)[C@H](CCCNC(=N)N)NC(=O)[C@@H](N)C(C)C)C(=O)N[C@@H](Cc1ccc(O)cc1)C(=O)N[C@@H](CCC(N)=O)C(=O)N[C@@H](CCCCN)C(=O)N[C@@H](Cc1ccc(O)cc1)C(=O)N[C@@H](CCCNC(=N)N)C(=O)N[C@@H](CCC(N)=O)C(=O)N[C@@H](CC(C)C)C(=O)N[C@@H](CC(C)C)C(=O)N[C@@H](CC(=O)O)C(=O)N[C@@H](CCCCN)C(=O)N[C@@H](Cc1ccc(O)cc1)C(=O)N[C@H](C(=O)N[C@H](C(=O)N[C@@H](CC(C)C)C(=O)N[C@@H](CCCNC(=N)N)C(=O)N[C@@H](CC(N)=O)C(=O)NCC(=O)N[C@@H](Cc1ccc(O)cc1)C(=O)N[C@@H](CCCCN)C(=O)N[C@@H](CCCCN)C(=O)N[C@@H](CC(C)C)C(=O)N[C@@H](CCC(N)=O)C(=O)N[C@@H](CC(=O)O)C(=O)N[C@H](C(=O)N[C@@H](Cc1ccccc1)C(=O)N[C@@H](CO)C(=O)N[C@@H](CCCCN)C(=O)N[C@@H](CCC(N)=O)C(=O)N[C@H](C(=O)NCC(=O)N[C@@H](CO)C(=O)O)C(C)C)[C@@H](C)CC)[C@@H](C)CC)[C@@H](C)O [MacroCath8] (H-VRSLAKLIYQKYRQLLDKYTILRNGYKKLQDIFSKQVGS-OH)	>13.6	>13.6	>13.6	>13.6	>13.6	>13.6	>13.6	>13.6	13.6 (>13.6)^13.6 µM	13.6 (>13.6)^13.6 µM	–	–	–
CC[C@H](C)[C@H](NC(=O)[C@H](C)NC(=O)[C@H](CC(N)=O)NC(=O)[C@H](CCCCN)NC(=O)[C@H](Cc1ccccc1)NC(=O)[C@@H](NC(=O)[C@H](CC(=O)O)NC(=O)[C@H](CCCCN)NC(=O)[C@@H](NC(=O)[C@H](CCCCN)NC(=O)[C@H](CC(=O)O)NC(=O)[C@H](CO)NC(=O)[C@H](C)NC(=O)[C@H](CCCCN)NC(=O)[C@H](CCCCN)NC(=O)[C@H](CC(C)C)NC(=O)[C@H](CC(C)C)NC(=O)[C@H](CC(N)=O)NC(=O)[C@H](CCCCN)NC(=O)[C@@H](NC(=O)[C@H](CCCCN)NC(=O)[C@H](CCC(=O)O)NC(=O)[C@@H](NC(=O)[C@@H](NC(=O)[C@H](CCCNC(=N)N)NC(=O)[C@H](CC(C)C)NC(=O)[C@H](CCCNC(=N)N)NC(=O)[C@H](CCCCN)NC(=O)[C@@H](N)C(C)C)[C@@H](C)CC)C(C)C)[C@@H](C)CC)[C@@H](C)CC)[C@@H](C)O)C(=O)N[C@@H](CC(N)=O)C(=O)N[C@@H](CO)C(=O)N[C@@H](CC(C)C)C(=O)N[C@@H](CC(C)C)C(=O)N[C@@H](CO)C(=O)O [MacroCath7] (H-VKRLRIVEKIKNLLKKASDKIKDTFKNAINSLLS-OH)	>16.3	>16.3	>16.3	>16.3	>16.3	8.1	>16.3	>16.3	16.3 (16.3)^16.3 µM	16.3 (16.3)^16.3 µM	16.3 (≈ 64 µg/mL)	8.1	MBC E. coli ([7]; clinical isolate - animal): 16.3 (16.3)^16.3 µM
CC[C@H](C)[C@H](NC(=O)CNC(=O)[C@H](CCC(=O)O)NC(=O)[C@H](CCC(N)=O)NC(=O)[C@@H](NC(=O)[C@H](CCCCN)NC(=O)[C@H](CC(N)=O)NC(=O)[C@H](CCCCN)NC(=O)[C@@H](NC(=O)[C@H](CC(C)C)NC(=O)[C@H](CC(N)=O)NC(=O)CNC(=O)[C@H](CC(C)C)NC(=O)[C@H](CCCCN)NC(=O)[C@H](CCCNC(=N)N)NC(=O)[C@H](CC(C)C)NC(=O)CN)[C@@H](C)CC)[C@@H](C)CC)C(=O)N[C@@H](CCC(=O)O)C(=O)N[C@@H](Cc1c[nH]cn1)C(=O)N[C@@H](Cc1ccccc1)C(=O)N[C@@H](Cc1ccccc1)C(=O)NCC(=O)N[C@@H](CCCNC(=N)N)C(=O)N[C@@H](CCCNC(=N)N)C(=O)O [SmcrCath6] (H-GLRKLGNLIKNKIQEGIEHFFGRR-OH)	>22.6	>22.6	>22.6	>22.6	>22.6	11.3	>22.6	>22.6	–	–	22.6 (≈ 63.8 µg/mL)	22.6	MIC ([7]; clinical isolate - animal): >22.6 µM
